From patent publication EP4759807A1, “PROTEOLYSIS TARGETING CHIMERA COMPOUND FOR DEGRADING IRAK4 AND USE THEREOF” (Shenzhen Zhongge Biological Technology Co., Ltd., priority 2023, dated 2025) come the findings set out here.

The experiment concerns the target T1, IRAK4 (Homo sapiens, UniProt Q9NWZ3).
T1 sequence (Q9NWZ3 1-460): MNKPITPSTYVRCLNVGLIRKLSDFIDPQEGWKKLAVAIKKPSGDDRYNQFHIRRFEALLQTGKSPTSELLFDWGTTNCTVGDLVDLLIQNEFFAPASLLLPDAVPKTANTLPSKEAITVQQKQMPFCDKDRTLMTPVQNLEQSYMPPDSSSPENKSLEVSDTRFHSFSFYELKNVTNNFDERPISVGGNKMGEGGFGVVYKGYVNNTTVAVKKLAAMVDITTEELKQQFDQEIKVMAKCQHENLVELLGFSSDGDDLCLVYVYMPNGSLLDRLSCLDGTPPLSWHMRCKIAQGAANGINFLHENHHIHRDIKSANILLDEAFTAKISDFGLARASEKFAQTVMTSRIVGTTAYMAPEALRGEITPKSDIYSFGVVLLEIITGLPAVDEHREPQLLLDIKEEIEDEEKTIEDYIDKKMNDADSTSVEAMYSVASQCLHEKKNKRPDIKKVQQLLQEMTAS
Briefly: Hibit fluorescence detection of proteolysis (IRAK4-HiBiT in HEK293T cells). The experiment is classed as cell-based. Set-up: host or cells: HEK293T (ATCC). The conditions noted are these: for Dmax: HEK-293T; for DC50: IRAK4-HiBiT, HEK293T cells, 24 h. In a few lines:
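Degradation read-out: luminescence from lytic HiBiT detection (15 min, room temperature) after 24 h compound exposure (37 °C, 5% CO2) of HEK293T cells transiently expressing IRAK4 fused to a HiBiT tag. Data fitted to a bell-shaped four-parameter model giving two EC50 values.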

Read-outs that look alike come from different tables or passages of the source.

Compound `Cn1c(=O)n(C2CCC(=O)NC2=O)c2cccc(N3CCN(C4CCN(C[C@H]5CC[C@H](n6cc(-n7cc(-c8cnn9cc(C#N)cnc89)nn7)c(C(F)F)n6)CC5)CC4)CC3)c21` (stereo partly shown) [Compound 206] yielded a Dmax below 60%. Moreover, the DC50 (read-out: DC50) lay within 0.5 to 1 nM.
The compound `Cn1c(=O)n(C2CCC(=O)NC2=O)c2cccc(N3CCC4(CCN(C[C@H]5CC[C@H](n6cc(-n7cc(-c8cnn9ccc(N%10CCS(=O)(=O)CC%10)nc89)nn7)c(C(F)F)n6)CC5)CC4)CC3)c21` (stereo partly shown) [Example 112] registered a Dmax above 80% and a DC50 below 0.5 nM.
`Cl.Cn1c(=O)n(C2CCC(=O)NC2=O)c2cccc(N3CCN(C4CCN(C[C@H]5CC[C@H](n6cc(-n7cc(-c8cnn9ccc(N%10CCNCC%10)nc89)nn7)c(C(F)F)n6)CC5)CC4)CC3)c21` (stereo partly shown) [Example 131, 3-(4-(4-(1-(1r,4r)-4-(3-difluoromethyl)-4-(4-(5-(piperazin-1-yl)pyrazolo[1,5-a]pyrimidin-3-yl)-1H-1,2,3-triazol-1-yl)-1H-pyrazol-1-yl)cyclohexyl)methyl)piperidin-4-yl)piperazin-1-yl)-3-methyl-2-oxo-2,3-dihydro-1H-benzoimidazol-1-yl)piperidine-2,6-dione hydrochloride]: where the note is “read-out: DC50”, the DC50 fell in the range of 0.5 to 1 nM.
The compound `CN(CC1CCN(CCC#Cc2cccc3c2n(C)c(=O)n3C2CCC(=O)NC2=O)CC1)C[C@H]1CC[C@H](n2cc(-n3cc(-c4cnn5ccc(N6CCOCC6)nc45)nn3)c(C(F)F)n2)CC1` (stereo partly shown) [Example 25] showed a Dmax below 60% and a DC50 below 0.5 nM.
For `Cn1c(=O)n(C2CCC(=O)NC2=O)c2cccc(CCCN3CCOC(CNCC4CCC(n5cc(-n6cc(-c7cnn8ccc(N9CCOCC9)nc78)nn6)c(C(F)F)n5)CC4)C3)c21` [Example 2, 3-(4-(3-((S)-2-((((4-(-3-(difluoromethyl)-4-(4-(5-morpholinopyrazolo [1,5-a]pyrimidin-3-yl)-1H-1,2,3-triazol-1-yl)-1H-pyrazol-1-ylcyclohexyl)methyl)amino)methyl)morpholinyl)propyl)-3-methyl-2-oxo-2,3-dihydro-1H-benzo[d]imidazol-1-yl)piperidine-2,6-dione] the same measures were below 60% and below 0.5 nM.
In turn, `Cn1c(=O)n(C2CCC(=O)NC2=O)c2cccc(N3CCC4(CCN(C[C@H]5CC[C@H](n6cc(-n7cc(-c8cnn9cc(C#N)cnc89)nn7)c(C(F)F)n6)CC5)CC4)CC3)c21` (stereo partly shown) [Compound 199] had a Dmax of 60 to 70%. For the same compound, under “read-out: DC50”, the DC50 fell in the range of 1 to 5 nM.
Turning to `Cn1c(=O)n(C2CCC(=O)NC2=O)c2cccc(NCC3CC4(CCN(C[C@H]5CC[C@H](n6cc(-n7cc(-c8cnn9ccc(N%10CCOCC%10)nc89)nn7)c(C(F)F)n6)CC5)CC4)C3)c21` (stereo partly shown) [Example 9], the Dmax was below 60% and the DC50 is below 0.5 nM.
For `CN1CCN(c2ccn3ncc(-c4cn(-c5cn([C@H]6CC[C@H](CN7CCN(C8CCN(c9cccc%10c9n(C)c(=O)n%10C9CCC(=O)NC9=O)CC8)CC7)CC6)nc5C(F)F)nn4)c3n2)CC1` (stereo partly shown) [Compound 231], the Dmax lay in the range of 70 to 80%. For the same compound, for the setting “read-out: DC50”, the DC50 is 0.5 to 1 nM.
For `CN1CCN(c2ccn3ncc(-c4cn(-c5cn([C@H]6CC[C@H](CN7CCC8(CC7)CCN(c7cccc9c7n(C)c(=O)n9C7CCC(=O)NC7=O)C8)CC6)nc5C(F)F)nn4)c3n2)CC1` (stereo partly shown) [Compound 228], in that order: 70 to 80% and below 0.5 nM.
For `Cn1c(=O)n(C2CCC(=O)NC2=O)c2cccc(N3CCC4(CCN(C[C@H]5CC[C@H](n6cc(-n7cc(-c8cnn9cc(C#N)cnc89)nn7)c(C(F)F)n6)CC5)C4)CC3)c21` (stereo partly shown) [Compound 189], in that order: 60 to 70% and 0.5 to 1 nM.
`Cn1c(=O)n(C2CCC(=O)NC2=O)c2cccc(N3CC4CCC(C3)N4C[C@H]3CC[C@H](n4cc(-n5cc(-c6ccc7cc(C(N)=O)cnn67)nn5)c(C(F)F)n4)CC3)c21` (stereo partly drawn) [Example 86, 7-(1-(3-(difluoromethyl)-1-((1R,4R)-4-(3-(1-(2,6-dioxy-3-yl)-3-methyl-2-oxo-2,3-dihydro-1H-benzo[d]imidazol-4-yl)-3,8-diazabicyclo[3.2.1]oct-8-yl)methyl)cyclohexyl-1H-pyrazol-4-yl)-1H-1,2,3-triazol-4-yl)pyrrolo[1,2-b]pyridazine-3-carboxamide]: the Dmax is above 80% and the DC50 fell in the range of 1 to 5 nM.
For `Cn1c(=O)n(C2CCC(=O)NC2=O)c2cccc(N3CCOC4(CCN(C[C@H]5CC[C@H](n6cc(-n7cc(-c8cnn9ccc(N%10CCOCC%10)nc89)nn7)c(C(F)F)n6)CC5)CC4)C3)c21` (stereo partly shown) [Example 38], in that order: below 60% and below 0.5 nM.
Take `Cn1c(=O)n(C2CCC(=O)NC2=O)c2cccc(N3CCN(C[C@H]4CC[C@H](n5cc(-n6cc(-c7cnn8ccc(N9CCC(C)(O)CC9)nc78)nn6)c(C(F)F)n5)CC4)CC3)c21` (stereo partly shown) [Compound 235]: the Dmax was above 80%. For the same compound, under “read-out: DC50”, the DC50 was below 0.5 nM.
In the case of `Cn1c(=O)n(C2CCC(=O)NC2=O)c2cccc(NC(=O)C3CCN(C[C@H]4CC[C@H](n5cc(-n6cc(-c7ccc8cc(C(N)=O)cnn78)nn6)c(C(F)F)n5)CC4)CC3)c21` (stereo partly shown) [Example 69, 7-(1-(3-(difluoromethyl)-1-((1r,4r)-4-((4-((1-(2,6-dioxopiperidin-3-yl)-3-methyl-2-oxo-2,3-dihydro-1H-benzo[d]imidazol-4-yl)carbamoyl)piperidin-1-yl)methyl)cyclohexyl)-1H-pyrazol-4-yl)-1H-1,2,3-triazol-4-yl)pyrrolo[1,2-b]pyridazine-3-carboxamide], the Dmax is above 80% and the DC50 was above 5 nM.
For `Cn1c(=O)n(C2CCC(=O)NC2=O)c2cccc(N3CC4(CCN(C[C@H]5CC[C@H](n6cc(-n7cc(-c8cnn9ccc(N%10CCOCC%10)nc89)nn7)c(C(F)F)n6)CC5)CC4)C3)c21` (stereo partly shown) [Example 43, 3-(4-(7-(((1r,4r)-4-(3-(difluoromethyl)-4-(4-(5-morpholinopyrazolo[1,5-a]pyrimidin-3-yl)-1H-1,2,3-triazol-1-yl)-1H-pyrazol-1-yl)cyclohexyl)methyl)-2,7-diazaspiro[3.5]nonan-2-yl)-3-methyl-2-oxo-2,3-dihydro-1H-benzo[d]imidazol-1-yl)piperidine-2,6-dione], in that order: above 80% and below 0.5 nM.
For `Cn1c(=O)n(C2CCC(=O)NC2=O)c2cccc(N3CCN(C[C@H]4CC[C@H](n5cc(-n6cc(-n7ccc8cc(C(N)=O)cnc87)nn6)c(C(F)F)n5)CC4)CC3)c21` (stereo partly shown) [Example 100, 1-(1-(3-(difluoromethyl)-1-((1r,4r)-4-((4-(1-(2,6-dioxopiperidin-3-yl)-3-methyl-2-oxo-2,3-dihydro-1H-benzo[d]imidazol-4-yl)piperazin-1-yl)methyl)cyclohexyl)-1H-pyrazol-4-yl)-1H-1,2,3-triazol-4-yl)-1H-pyrrolo[2,3-b]pyridine-5-carboxamide], in that order: 60 to 70% and 0.5 to 1 nM.
For `Cn1c(=O)n(C2CCC(=O)NC2=O)c2cccc(CN3CCC4(CC3)CN(C[C@H]3CC[C@H](n5cc(-n6cc(-c7cnn8ccc(N9CCOCC9)nc78)nn6)c(C(F)F)n5)CC3)C4)c21` (stereo partly shown) [Example 14], in that order: below 60% and 0.5 to 1 nM.
`Cn1c(=O)n(C2CCC(=O)NC2=O)c2cccc(N3CCN(C4CCN(C[C@H]5CC[C@H](n6cc(-n7cc(-c8cnn9ccc(N%10CCOCC%10)nc89)nn7)c(C(F)F)n6)CC5)CC4)CC3)c21` (stereo partly shown) [Example 40] yielded a Dmax above 80% and a DC50 below 0.5 nM.
For `Cn1c(=O)n(C2CCC(=O)NC2=O)c2cccc(N3CC(N4CCN(C[C@H]5CC[C@H](n6cc(-n7cc(-c8cnn9ccc(N%10CCOCC%10)nc89)nn7)c(C(F)F)n6)CC5)CC4)C3)c21` (stereo partly shown) [Example 42, 3-(4-(3-(4-(((1r,4r)-4-(3-(difluoromethyl)-4-(4-(5-morpholinopyrazolo[1,5-a]pyrimidin-3-yl)-1H-1,2,3-triazol-1-yl)-1H-pyrazol-1-yl)cyclohexyl)methyl)piperazin-1-yl)azetidin-1-yl)-3-methyl-2-oxo-2,3-dihydro-1H-benzo[d]imidazol-1-yl)piperidine-2,6-dione] the same measures were below 60% and below 0.5 nM.
In turn, `Cn1c(=O)n(C2CCC(=O)NC2=O)c2cccc(N3CCN(C[C@H]4CC[C@H](n5cc(-n6cc(-c7cnn8ccc(NCC9CC9)nc78)nn6)c(C(F)F)n5)CC4)CC3)c21` (stereo partly shown) [Compound 225] came in with a Dmax of 70 to 80%. Also, the DC50 (read-out: DC50) was below 0.5 nM.
In turn, `Cn1c(=O)n(C2CCC(=O)NC2=O)c2cccc(N3CCN(C[C@H]4CC[C@H](n5cc(-n6cc(-c7ccc8cc(C(N)=O)cnn78)nn6)c(C(F)F)n5)CC4)CC3)c21` (stereo partly shown) [Example 57] had a Dmax of 70 to 80% and a DC50 below 0.5 nM.
For `Cn1c(=O)n(C2CCC(=O)NC2=O)c2cccc(N3CC(CN4CCC(n5cc(-n6cc(-c7ccc8cc(C(N)=O)cnn78)nn6)c(C(F)F)n5)CC4)C3)c21` (stereo not shown) [Example 73, 7-(1-(3-(difluoromethyl)-1-(1-((1-(1-(2,6-dioxopiperidin-3-yl)-3-methyl-2-oxo-2,3-dihydro-1H-benzo[d]imidazol-4-yl)azetidin-3-yl)methyl)piperidin-4-yl)-1H-pyrazol-4-yl)-1H-1,2,3-triazol-4-yl) pyrrolo[1,2-b]pyridazine-3-carboxamide] the same measures were below 60% and below 0.5 nM.
